In PMC11676667, “Pharmacokinetics of Oral Cannabinoid Δ8-Tetrahydrocannabivarin and Its Main Metabolites in Healthy Participants” (Pharmaceuticals, 2024):
Like-named read-outs stand apart in the source and are kept apart here.

Assay: Plasma pharmacokinetics after single oral dose of Δ8-THCV in MCT oil (LC-MS/MS, non-compartmental analysis)
Format: in vivo, human
Set-up: Clast (last quantifiable concentration): unit not given here
Settings: for Clast (last quantifiable concentration) / tlast (time to last quantifiable concentration) / concentration at 0.5 h / concentration at 1 h / concentration at 2 h / concentration at 4 h / concentration at 6 h / concentration at 8 h / AUC(0-t) / Cmax / MRT / Tmax: plasma; for plasma concentration: Predose; for concentration at 0.5 h / concentration at 1 h / concentration at 2 h / concentration at 4 h / concentration at 6 h / concentration at 8 h / AUC(0-t) / Cmax / MRT / Tmax: human; for concentration at 0.5 h / concentration at 1 h / concentration at 2 h / concentration at 4 h / concentration at 6 h / concentration at 8 h: oral; for AUC(0-t) / Cmax / MRT / Tmax: po; for MRT: read-out: MRT (mean residence time); for Tmax: read-out: tmax
Protocol: The study was a two-phase, dose-ranging, placebo-controlled trial in 21 healthy participants to assess the safety, tolerability, PK, and PD of an oral formulation of Δ8-THCV. A detailed description of the study was published elsewhere. The study product was a medium-chain triglyceride (MCT) oil oral formulation of Δ8-THCV at a concentration of 50 mg/mL. […] MCT oil was used as placebo.
Twenty-one participants were enrolled in the clinical study and plasma samples from 15 participants were sent to our laboratory for pharmacokinetic evaluation. Of these, 3 participants were enrolled in Phase 1, an unblinded, placebo-controlled, single ascending dose design and 12 were enrolled in Phase 2, a double-blind, randomized, placebo-controlled, within-participant crossover design. At each study session, participants received one of the following oral doses: placebo, 12.5 mg, 25 mg, 50 mg, 100 mg, and 200 mg of the aforementioned Δ8-THCV formulation in MCT. Study visits were separated by a washout period of a minimum of one week and maximum of 28 days. Participants entered the research facility the night before the session and received the study product in the morning after a standardized high-fat, high-calorie breakfast. PK blood samples included in this analysis were collected prior to dosing and 0.5, 1, 2, 4, 6, and 8 h after dose. Immediately following collection into K2EDTA tubes, blood samples were placed on wet ice, centrifuged, and plasma was immediately frozen at −80 °C until shipment to the bioanalytical laboratory (iC42 Clinical Research and Development, University of Colorado, Aurora, CO, USA) on dry ice.
Plasma samples were analyzed using a validated high-performance liquid chromatography–tandem mass spectrometry (LC-MS/MS) assay. The assay included Δ8-THCV and its main metabolites 11-OH-Δ8-THCV and Δ8-THCV-COOH, Δ9-THCV and its main metabolite Δ9-THCV-COOH, and Δ9-THC and Δ8-THC as well as their main metabolites (Figure 3). The complete list of analyzed compounds and a summary of the key performance parameters of the assay are presented in Appendix A and Table A1 and Table A2. […] For the PK analysis, concentrations below the lower limit of quantification were set to 0 ng/mL. PK parameters were calculated using non-compartmental analysis (Phoenix WinNonlin version 8.4., Certara, Princeton, NJ, USA). Statistical analysis was carried out using GraphPad Prism (version 10, Boston, MA, USA).

[1] = 100 mg single oral Δ8-THCV in MCT oil, Mean (±SD)
[2] = 100 mg single oral Δ8-THCV in MCT oil, Median (Range)
[3] = 200 mg single oral Δ8-THCV in MCT oil, Mean (±SD)
[4] = 200 mg single oral Δ8-THCV in MCT oil, Median (Range)
[5] = 12.5 mg, 12.5 mg Δ8-THCV dose, Mean (SD, %CV)
[6] = 12.5 mg, 12.5 mg Δ8-THCV dose, Median (IQ Range)
[7] = 25 mg, 25 mg Δ8-THCV dose, Mean (SD, %CV)
[8] = 25 mg, 25 mg Δ8-THCV dose, Median (IQ Range)
[9] = 50 mg, 50 mg Δ8-THCV dose, Mean (SD, %CV)
[10] = 50 mg, 50 mg Δ8-THCV dose, Median (IQ Range)
[11] = 100 mg, 100 mg Δ8-THCV dose, Mean (SD, %CV)
[12] = 100 mg, 100 mg Δ8-THCV dose, Median (IQ Range)
[13] = 200 mg, 200 mg Δ8-THCV dose, Mean (SD, %CV)
[14] = 200 mg, 200 mg Δ8-THCV dose, Median (IQ Range)
[15] = 100 mg, 100 mg single oral Δ8-THCV in MCT oil, Mean (±SD)
[16] = 100 mg, 100 mg single oral Δ8-THCV in MCT oil, Median (Range)
[17] = 200 mg, 200 mg single oral Δ8-THCV in MCT oil, Mean (±SD)
[18] = 200 mg, 200 mg single oral Δ8-THCV in MCT oil, Median (Range)

CCCCCc1cc(O)c2c(c1)OC(C)(C)[C@@H]1CC=C(C(=O)O)CC21 (single isomer, unassigned; (+)) [Δ8-THC-COOH, (+)-11-nor-Δ8-THC-9-carboxylic acid]
Clast (last quantifiable concentration) [1]: 1.3 (±0.2)
tlast (time to last quantifiable concentration) [1]: 5.8 (±1.3)
Clast (last quantifiable concentration) [2]: 1.3 (1–1.7)
tlast (time to last quantifiable concentration) [2]: 6 (4–8)
Clast (last quantifiable concentration) [3]: 1.9 (±0.6)
tlast (time to last quantifiable concentration) [3]: 7.5 (±1.2)
Clast (last quantifiable concentration) [4]: 1.8 (1.1–2.8)
tlast (time to last quantifiable concentration) [4]: 8 (4–8)
plasma concentration (12.5 mg Δ8-THCV dose, Mean (SD, %CV)): 0 (±0, --) ng/mL
plasma concentration (12.5 mg Δ8-THCV dose, Median (IQ Range)): 0 (0–0) ng/mL
plasma concentration (25 mg Δ8-THCV dose, Mean (SD, %CV)): 0 (±0, --) ng/mL
plasma concentration (25 mg Δ8-THCV dose, Median (IQ Range)): 0 (0–0) ng/mL
plasma concentration (50 mg Δ8-THCV dose, Mean (SD, %CV)): 0 (±0, --) ng/mL
plasma concentration (50 mg Δ8-THCV dose, Median (IQ Range)): 0 (0–0) ng/mL
plasma concentration (100 mg Δ8-THCV dose, Mean (SD, %CV)): 0 (±0, --) ng/mL
plasma concentration (100 mg Δ8-THCV dose, Median (IQ Range)): 0 (0–0) ng/mL
plasma concentration (200 mg Δ8-THCV dose, Mean (SD, %CV)): 0 (±0, --) ng/mL
plasma concentration (200 mg Δ8-THCV dose, Median (IQ Range)): 0 (0–0) ng/mL
concentration at 0.5 h [5]: 0 ng/mL
concentration at 0.5 h [6]: 0 ng/mL
concentration at 1 h [5]: 0 ng/mL
concentration at 1 h [6]: 0 ng/mL
concentration at 2 h [5]: 0 ng/mL
concentration at 2 h [6]: 0 ng/mL
concentration at 4 h [5]: 0 ng/mL
concentration at 4 h [6]: 0 ng/mL
concentration at 6 h [5]: 0 ng/mL
concentration at 6 h [6]: 0 ng/mL
concentration at 8 h [5]: 0 ng/mL
concentration at 8 h [6]: 0 ng/mL
concentration at 0.5 h [7]: 0 ng/mL
concentration at 0.5 h [8]: 0 ng/mL
concentration at 1 h [7]: 0 ng/mL
concentration at 1 h [8]: 0 ng/mL
concentration at 2 h [7]: 0 ng/mL
concentration at 2 h [8]: 0 ng/mL
concentration at 4 h [7]: 0 ng/mL
concentration at 4 h [8]: 0 ng/mL
concentration at 6 h [7]: 0 ng/mL
concentration at 6 h [8]: 0 ng/mL
concentration at 8 h [7]: 0 ng/mL
concentration at 8 h [8]: 0 ng/mL
concentration at 0.5 h [9]: 0 ng/mL
concentration at 0.5 h [10]: 0 ng/mL
concentration at 1 h [9]: 0 ng/mL
concentration at 1 h [10]: 0 ng/mL
concentration at 2 h [9]: 0 ng/mL
concentration at 2 h [10]: 0 ng/mL
concentration at 4 h [9]: 0 ng/mL
concentration at 4 h [10]: 0 ng/mL
concentration at 6 h [9]: 0 ng/mL
concentration at 6 h [10]: 0 ng/mL
concentration at 8 h [9]: 0 ng/mL
concentration at 8 h [10]: 0 ng/mL
concentration at 0.5 h [11]: 0 ng/mL
concentration at 0.5 h [12]: 0 ng/mL
concentration at 1 h [11]: 0 ng/mL
concentration at 1 h [12]: 0 ng/mL
concentration at 2 h [11]: 0 ng/mL
concentration at 2 h [12]: 0 ng/mL
concentration at 4 h [11]: 0.4 ng/mL
concentration at 4 h [12]: 0 ng/mL
concentration at 6 h [11]: 0.6 ng/mL
concentration at 6 h [12]: 0 ng/mL
concentration at 8 h [11]: 0.1 ng/mL
concentration at 8 h [12]: 0 ng/mL
concentration at 0.5 h [13]: 0 ng/mL
concentration at 0.5 h [14]: 0 ng/mL
concentration at 1 h [13]: 0 ng/mL
concentration at 1 h [14]: 0 ng/mL
concentration at 2 h [13]: 0.4 ng/mL
concentration at 2 h [14]: 0 ng/mL
concentration at 4 h [13]: 1.3 ng/mL
concentration at 4 h [14]: 1.7 ng/mL
concentration at 6 h [13]: 1.8 ng/mL
concentration at 6 h [14]: 2 ng/mL
concentration at 8 h [13]: 1.6 ng/mL
concentration at 8 h [14]: 1.6 ng/mL
AUC(0-t) [15]: 2.4 ng·h/mL
Cmax [15]: 1.4 ng/mL
AUC(0-t) [16]: 1.6 ng·h/mL
Cmax [16]: 1.4 ng/mL
MRT [15]: 5.2 h
Tmax [15]: 5 h
MRT [16]: 5.3 h
Tmax [16]: 5 h
AUC(0-t) [17]: 8.1 ng·h/mL
Cmax [17]: 2.4 ng/mL
AUC(0-t) [18]: 9.6 ng·h/mL
Cmax [18]: 2.5 ng/mL
MRT [17]: 5.7 h
Tmax [17]: 6.1 h
MRT [18]: 5.8 h
Tmax [18]: 6 h
number of positive plasma samples (of 504 plasma samples from 15 participants after oral Δ8-THCV): 49
concentration in representative plasma sample (one subject after oral Δ8-THCV in MCT oil, Figure A1): 1.4 ng/mL
